Assay results reported in PubChem BioAssay AID179 (DTP/NCI, 2004).
Calls of active or inactive are those of the source.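 How the source made its calls: active means compounds giving half or more protection of infected cells from virus-caused growth loss, again on retest; inactive means the rest.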

Tested on: CEM cells HIV-1 protection, formazan growth assay
Experiment: NCI AIDS Antiviral Assay
Conditions: for IC50: measured here: growth of uninfected CEM cells
Outline: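 Category rules: moderately active means at least 50% protection on retest, and confirmed active means 100% protection reproducibly. The underlying data came from a formazan growth assay in HIV-1-infected CEM cells.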

| SMILES | EC50 [µM] | IC50 [µM] | outcome |
| --- | --- | --- | --- |
| CC1CCC2C(C)C(=O)OC3OC4(C)CCC1C32OO4 (stereo not given) | > 457 | 288 | – |
| NS(=O)(=O)c1ccc(Nc2c3ccccc3nc3c(C(=O)NCCCN(CCO)CCO)cccc23)cc1 | > 200 | 9.33 | – |
| O=C(c1ccccc1)C(SSC(C(=O)c1ccccc1)C(=O)c1ccccc1)C(=O)c1ccccc1 | > 200 | 17.4 | – |
| N#CCC(=O)Nn1c(CC#N)nnc1Cc1ccccc1 | – | – | inactive |
| COC(=O)[C@H](CC(C)C)NC(=O)[C@H](Cc1ccccc1)N1CC2C=CC1C2 (stereo not given in full) | > 676 | > 676 | – |
| COc1cc(/C=C2\CN(C)CC3=C2NC(=S)NC3c2cc(OC)c(OC)c(OC)c2)cc(OC)c1OC (stereo not given) | > 200 | 38.9 | – |
| Brc1ccc(-c2nc(-c3ccc(Br)cc3)n(-c3ccccc3)n2)cc1 | > 200 | 93.3 | – |
| COC(=O)[C@@H]1N2C(=O)C=NO[C@H]2SC1(C)C | > 1020 | > 1020 | – |
| COc1cc(C2c3cc4c(cc3OC(NNC(N)=O)C2C)OCO4)cc(OC)c1OC (stereo not given) | > 200 | 0.331 | – |
| CCOC(=O)c1[nH]n(-c2ccccc2)c(=O)c1C=NC(C)=S | > 200 | > 100 | – |
| O=c1oc2ccccc2[n+]([O-])c1-c1ccccc1 | > 1050 | > 1050 | – |
| O=C(NNC(=S)Nc1ccccc1)c1ccccc1Nc1ccccc1C(=O)NNC(=S)Nc1ccccc1 | > 30.9 | 30.2 | – |
| N#CC1([N+](=O)[O-])C=C1c1ccccc1 (stereo not given) | > 200 | 89.1 | – |
| CC(C)NC(=O)CNC(=O)c1ccccc1SC(=O)CCCC[n+]1ccccc1 | > 0.575 | – | – |
| CN(C)c1nc(=NCc2ccccn2)ss1 | > 17.4 | 9.33 | – |
| N#Cc1cccc(N2C(=O)C3C4C=CC(C3C2=O)C2C(=O)N(c3cccc(C#N)c3)C(=O)C42)c1 (stereo not given) | – | – | inactive |
| CN(C)c1nc(=Nc2cccc(Cl)c2)ss1 | – | – | inactive |
| NC(=O)c1ncn(CC2(CO)CCC2)c1N | > 200 | > 200 | – |
| Cc1ccc(Nc2nc(N)[nH]c(=O)c2N=O)cc1 | > 200 | 14.8 | – |
| c1ccc2c(-c3csc(-c4c[nH]c5ccccc45)n3)c[nH]c2c1 | > 200 | 56.2 | – |
| NC(Cn1ccc(=O)c(O)c1)C(=O)O (stereo not given) | > 200 | 95.5 | – |

| SMILES | EC50 [µM] | IC50 [µM] | outcome |
| --- | --- | --- | --- |
| c1ccc([P+](CCCCCCCC[P+](c2ccccc2)(c2ccccc2)c2ccccc2)(c2ccccc2)c2ccccc2)cc1 | > 100 | 1.23 | – |
| CN(C(=O)C12C3C4C5C3C1(C(=O)O)C5C42)C(C)(C)C (stereo not given) | > 955 | > 955 | – |
| C=C(C)CC(OC(=O)C(C)(C)C)c1ccccc1 (stereo not given) | – | – | inactive |
| CCOc1ccccc1NC(=O)CCc1nnc2s/c(=C\CCc3ccccc3)c(=O)n12 | > 79.4 | > 79.4 | – |
| CN(C)c1ccc(C(=O)CCCN2CCC(O)(c3ccc(Cl)cc3)CC2)cc1 | > 25.1 | > 25.1 | – |
| O=c1c2ccccc2oc2nc3ccc(Cl)cc3n12 | > 37.2 | > 37.2 | – |
| Nc1cnn(C2OC(CO)C(F)C2F)c(=O)n1 (stereo not given) | > 363 | > 363 | – |
| O=[N+]([O-])C(/C=C(\Cl)[N+](=O)[O-])=C(Nc1ccccc1)Nc1ccccc1 | > 200 | 6.61 | – |
| CC(=O)NC1C(OCC(=O)N2CCCC2C(=O)NC(CCC(=O)NCCCCCNc2ccc([N+](=O)[O-])c3[nH]c4ccccc4c(=O)c23)C(N)=O)C(O)C(CO)OC1(C)OCc1ccccc1 (stereo not given) | > 50.1 | 1.02 | – |
| CC(=O)Nc1c2sscc-2n(C)c1=O | > 16.6 | 0.891 | – |
| CCOC(OC1=C(C#N)CCCC1)C(CC)[Se]c1ccccc1[N+](=O)[O-] (stereo not given) | > 23.4 | > 23.4 | – |
| N=C(N)Oc1ccc(Cl)cc1 | > 200 | 26.9 | – |
| C1=Nc2ccc(cc2)-c2ccc(cc2)N=Cc2ccc(cc2)OCc2cccc(n2)COc2ccc1cc2 | > 100 | > 100 | – |
| CC[C@H]1CC(=O)c2c(cc3c(c2O)C(=O)c2ccccc2C3=O)[C@@]1(C#N)C(=O)OC(C)(C)C | – | – | inactive |
| CN1CCN(c2c(C(=O)Nc3ccc([N+](=O)[O-])cc3)cc([N+](=O)[O-])cc2[N+](=O)[O-])CC1 | > 200 | > 100 | – |
| O=c1oc2c(ccc3c(O)cccc32)c2c1CCCC2 | > 200 | > 200 | – |
| N#C/C(=C\c1ccccc1)c1ccc(Cl)cc1 | > 200 | 57.5 | – |
| Cn1c2c(c3ccccc31)CCN1C(=O)CN(C(=O)C3CCCCC3)CC21 (stereo not given) | > 200 | 66.1 | – |
| C/C(=N\NC(=O)c1ccncc1)c1cccc(/C(C)=N/NC(=O)c2ccncc2)n1.O=S(=O)([O-])[O-].[Fe+2] | > 200 | 16.2 | – |
| O[C@@H]1CCNC[C@@H]1CNC12CC3CC(CC(C3)C1)C2 | > 955 | 275 | – |
| Cn1c(=O)n2n(c1=O)C(C)(C13CC4CC(CC(C4)C1)C3)C13CC4CC(CC1C4)CC23 (stereo not given) | > 100 | > 100 | – |

| SMILES | EC50 [µM] | IC50 [µM] | outcome |
| --- | --- | --- | --- |
| Cc1noc(C)c1N=Nc1ccc2nonc2c1N | > 200 | > 200 | – |
| C=C(C(=O)O)C1CC[C@@]2(C)CC(O)CC(=C)C2C1 (stereo not given in full) | > 200 | > 200 | – |
| CCOC(=O)C1=C(C)NC(=S)NC1c1ccccc1 (stereo not given) | > 93.3 | > 93.3 | – |
| Cc1c(C)n(-c2ccccc2)c2nc(S(C)(=O)=O)nc(S(C)(=O)=O)c12 | > 200 | 0.288 | – |
| CSc1cc(C(=O)Nc2ccc(C3=NCCN3)cc2)ccc1C(=O)Nc1ccc(C2=NCCN2)cc1 | > 141 | 72.4 | – |
| COc1ccc2c(c1)c1c3c(ccc4ncn2c43)N(CCN(C)C)CCN=1 | > 20 | 0.324 | – |
| CCOP(=O)(OCC)C(Nc1ccc(F)cc1)c1ccccc1 (stereo not given) | > 200 | 89.1 | – |
| COc1ccccc1-c1n[nH]c(-c2ccccc2O)n1 | > 200 | > 200 | – |
| CCOP(=O)(/C=C(\Cl)c1ccccc1)OCC | > 129 | > 129 | – |
| Cc1ccc(Sc2ccc(C)cc2[N+](=O)[O-])c([N+](=O)[O-])c1 | > 97.7 | > 97.7 | – |
| O=S(=O)(CCn1c(Sc2ccccc2)c(Sc2ccccc2)c2ccccc21)c1ccccc1 | > 200 | > 200 | – |
| N#Cc1c(O)c(N=Nc2ccc(Cl)cc2)c(=O)n2c1[nH]c1ccccc12 | > 200 | 53.7 | – |
| COc1ccccc1NC(=O)C1=C(C)NC(C)=C(C(=O)Nc2ccccc2OC)C1/C=C/c1ccccc1 | – | – | inactive |
| Cc1nc(C(=O)O)c2ccccc2n1 | – | – | inactive |
| O=C(O)C[C@H](Cl)[C@H](NC(=O)OCc1ccccc1)C(=O)O | – | – | inactive |
| COc1cc(C[C@@]2(O)C(=O)OCC2Cc2ccc(OC)c(OC)c2)ccc1O (stereo not given in full) | > 200 | 36.3 | – |
| CCOC(=O)C(=O)C1C(=O)N(C)C2(C)CC1c1ccccc1O2 (stereo not given) | > 200 | > 200 | – |
| CC(C)CCC[C@@H](C)[C@H]1CC[C@H]2[C@@H]3CC[C@H]4C[C@@H](CCC=C(c5cc(Cl)c(OCc6ccccc6C(=O)O)c(C(=O)O)c5)c5cc(Cl)c(OCc6ccccc6C(=O)O)c(C(=O)O)c5)CC[C@]4(C)[C@H]3CC[C@]12C | 67.6 | > 200 | – |
| COC(c1ccsc1)C(C#N)(C#N)N=Cc1ccsc1 (stereo not given) | > 200 | 16.2 | – |
| Fc1cccc2c(SCc3ccc(Cl)cc3Cl)cnnc12 | > 15.5 | > 15.5 | – |
